Assay [1] relates to M. smegmatis mc2 155/pTA-M+. The experiment in a line: microbe, parasite or virus in culture. The format is cell-based. Conditions: Mycolicibacterium smegmatis, MC2155, read-out: MIC, M. smegmatis mc2 155/pTA-M+.
The test system of the next assay is M. smegmatis. The experiment in a line: M. smegmatis loss of viability (viable colony counts). The format is cell-based.

Converted amounts (≈) assume the structure as drawn.

`CCCC[C@@H](CN[C@H](CN)CCCCNC)NCc1cccc2ccccc12` [Compound 2471-12, (S)—N6-methyl-N2-((S)-2-(naphthalen-1-ylmethylamino)hexyl)hexane-1,2,6-triamine]: the MIC in assay [1] stood at 50 µM (≈ 19.2 µg/mL). Further, in the assay on M. smegmatis, the “Time course of loss of viable colony counts, MtbTopI overexpression” value is reported as “reduction of cell killing”.

Turning to `CCCC[C@@H](CN[C@@H](CN)CCCCNC)NCc1cccc2ccccc12` [Compound 2471-36], in assay [1], the MIC is 50 µM (≈ 19.2 µg/mL).

These data come from US9988341B2, “Bacterial topoisomerase inhibitors and use thereof” (THE FLORIDA INTERNATIONAL UNIVERSITY BOARD OF TRUSTEES, priority 2016, dated 2018).
